# Assay results published in patent publication US10005792B2, “Aminoindane-, aminotetrahydronaphthalene- and aminobenzocyclobutane-derived PRMT5-inhibitors” (CTXT PTY LTD, priority 2014, dated 2018).
# Where a name gives a salt, the structure may show the parent alone.
# Target: T1, Full-length PRMT5 enzyme co-expressed with MEP50 (Homo sapiens (Human), UniProt O14744)
# Assay: Revised PRMT5 Biochemical Assay
# Conditions: 1 μM histone H4 derived peptide substrate, 1 μM S-Adenosyl methionine, 4 hours at 37 degree Celsius, Transcreener EPIGEN fluorescence polarisation
# Protocol: (§1) Compounds of the invention may be tested for in vitro activity in the following assay: A histone H4 derived peptide is used as substrate (amino acid sequence: […]NH2). Full-length PRMT5 enzyme (NCBI Reference sequence NP-006100.2) was co-expressed with Hiss-MEP50 in insect cells and purified via Nickel immobilized metal affinity and gel filtration chromatography (“the enzyme”).
# The 6 μL reactions are run in Greiner brand black 384-well low volume assay plates. All reactions contained assay buffer (phosphate buffered saline, 0.01% (v/v) Tween-20, 0.01% (w/v) albumin from chicken egg white, 1 mM Dithiothreitol, 1 μM peptide substrate, 1 μM S-Adenosyl methionine, and 15 ng/reaction enzyme, with the enzyme being omitted from negative control reactions. Compounds were added in a volume of 100 nL from dilution series prepared in DMSO, positive and negative control reactions receiving the same volume DMSO without compound. The plates were sealed with adhesive seals and incubated for 4 hours at 37 degree Celsius. Reaction progress was measured using the Transcreener™ EPIGEN methyltransferase assay (BellBrook Labs, Madison, Wis.) as recommended by the manufacturer. To each reaction 2 μL detection mix were added, containing coupling enzymes, fluorescence polarisation tracer, and AMP antibody. Plates were incubated for 90 minutes before being read on a PerkinElmer EnVision™ plate reader in fluorescence polarisation mode. IC50 values were obtained from the raw readings by calculating percent inhibition (% I) for each reaction relative to controls on the same plate (% I=(I−CN)/(CP−CN) where CN/CP are the averages of the negative/positive reactions, respectively), then fitting the % I data vs. compound concentration [I] to % I=([…]) where A is the lower asymptote, B is the upper asymptote, C is the IC50 value, and D is the slope.
# T1 sequence (O14744 whole entry): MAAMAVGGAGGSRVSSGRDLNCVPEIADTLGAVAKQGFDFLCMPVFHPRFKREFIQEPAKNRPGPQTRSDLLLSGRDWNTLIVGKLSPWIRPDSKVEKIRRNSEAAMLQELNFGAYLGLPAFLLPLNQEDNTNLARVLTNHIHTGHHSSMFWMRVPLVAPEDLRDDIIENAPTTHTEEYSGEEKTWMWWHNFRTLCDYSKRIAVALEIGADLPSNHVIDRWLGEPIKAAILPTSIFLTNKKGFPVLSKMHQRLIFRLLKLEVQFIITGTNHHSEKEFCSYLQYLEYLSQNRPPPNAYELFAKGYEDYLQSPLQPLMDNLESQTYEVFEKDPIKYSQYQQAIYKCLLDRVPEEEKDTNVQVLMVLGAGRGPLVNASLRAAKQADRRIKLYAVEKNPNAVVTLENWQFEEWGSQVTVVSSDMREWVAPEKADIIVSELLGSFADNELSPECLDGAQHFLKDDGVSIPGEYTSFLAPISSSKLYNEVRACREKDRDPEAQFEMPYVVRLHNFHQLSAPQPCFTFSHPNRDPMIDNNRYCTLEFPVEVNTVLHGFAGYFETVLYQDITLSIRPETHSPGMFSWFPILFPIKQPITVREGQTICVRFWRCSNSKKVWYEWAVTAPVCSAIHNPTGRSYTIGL
# T1 sequence (Q9BQA1 whole entry partner): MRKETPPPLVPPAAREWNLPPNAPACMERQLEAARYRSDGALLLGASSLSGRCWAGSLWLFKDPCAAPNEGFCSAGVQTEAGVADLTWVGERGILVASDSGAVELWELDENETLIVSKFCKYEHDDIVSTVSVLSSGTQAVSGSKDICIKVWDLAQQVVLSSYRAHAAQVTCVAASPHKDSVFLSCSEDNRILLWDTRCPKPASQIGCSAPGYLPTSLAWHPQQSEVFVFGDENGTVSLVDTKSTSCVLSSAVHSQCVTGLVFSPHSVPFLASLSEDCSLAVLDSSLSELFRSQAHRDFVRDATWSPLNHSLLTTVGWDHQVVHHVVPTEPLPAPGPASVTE
row,IC50,SMILES
1,103 µM,"O=C(NC[C@@H](O)CNC1Cc2ccccc2C1)c1ccccc1C(F)(F)F [Compound 118, (S)-N-(3-((2,3-dihydro-1H-inden-2-yl)amino)-2-hydroxypropyl)-2-(trifluoromethyl)benzamide]"
2,5.08 µM,"O=C(NC[C@@H](O)CNC1Cc2ccccc2C1)c1cccc(OC(F)F)c1 [Compound 119, (S)-3-(difluoromethoxy)-N-(3-((2,3-dihydro-1H-inden-2-yl)amino)-2-hydroxypropyl)benzamide]"
3,13.3 µM,"O=C(NC[C@@H](O)CNC1Cc2ccccc2C1)c1cccc2[nH]cnc12 [Compound 120, (S)-N-(3-((2,3-dihydro-1H-inden-2-yl)amino)-2-hydroxypropyl)-1H-benzo[d]imidazole-4-carboxamide]"
4,0.166 µM,"CCOc1cc(C(=O)N2CCOCC2)c(C)cc1C(=O)NC[C@@H](O)CNC1Cc2ccccc2C1 [Compound 122, (S)-N-(3-((2,3-dihydro-1H-inden-2-yl)amino)-2-hydroxypropyl)-2-ethoxy-5-methyl-4-(morpholine-4-carbonyl)benzamide]"
5,6.72 µM,"O=C(NC[C@@H](O)CNC1Cc2ccccc2C1)c1cccc2scnc12 [Compound 125, (S)-N-(3-((2,3-dihydro-1H-inden-2-yl)amino)-2-hydroxypropyl)benzo[d]thiazole-4-carboxamide]"
6,29.7 µM,"O=C(NC[C@@H](O)CNC1Cc2ccccc2C1)c1cccc2cn[nH]c12 [Compound 132, (S)-N-(3-((2,3-dihydro-1H-inden-2-yl)amino)-2-hydroxypropyl)-1H-indazole-7-carboxamide]"
7,47 µM,"O=C(NC[C@@H](O)CNC1Cc2ccccc2C1)c1ccccc1C(F)F [Compound 137, (S)-2-(difluoromethyl)-N-(3-((2,3-dihydro-1H-inden-2-yl)amino)-2-hydroxypropyl)benzamide]"
8,16.9 µM,"O=C(NC[C@@H](O)CNC1Cc2ccccc2C1)c1cccc(C(F)F)c1 [Compound 138, (S)-3-(difluoromethyl)-N-(3-((2,3-dihydro-1H-inden-2-yl)amino)-2-hydroxypropyl)benzamide]"
9,4.68 µM,"CS(=O)(=O)Nc1cccc(C(=O)NC[C@@H](O)CNC2Cc3ccccc3C2)c1 [Compound 140, (S)—N-(3-((2,3-Dihydro-1H-inden-2-yl)amino)-2-hydroxypropyl)-3-(methylsulfonamido) benzamide]"

# Further lines, the compound ahead of its results:
row,SMILES,IC50
1,"CCOc1cc(-c2nnc(C)o2)ccc1C(=O)NC[C@@H](O)CNC1Cc2ccccc2C1 [Compound 116, (S)-N-(3-((2,3-dihydro-1H-inden-2-yl)amino)-2-hydroxypropyl)-2-ethoxy-4-(5-methyl-1,3,4-oxadiazol-2-yl)benzamide]",0.276 µM
2,"CCOc1cc(C(=O)N2C3CCC2COC3)ncc1C(=O)NC[C@@H](O)CNC1Cc2ccccc2C1 [Compound 126, 6-(3-oxa-8-azabicyclo[3.2.1]octane-8-carbonyl)-N-((S)-3-((2,3-dihydro-1H-inden-2-yl(amino-2-hydroxypropyl)-4-ethoxynicotinamidedihydrochloride]",0.226 µM
3,"O=C(NC[C@@H](O)CNC1Cc2ccccc2C1)c1cccc2[nH]ncc12 [Compound 128, (S)-N-(3-((2,3-dihydro-1H-inden-2-yl)amino)-2-hydroxypropyl)-1H-indazole-4-carboxamide]",15.4 µM
4,"CCOc1cc(CC(=O)N2C3CCC2COC3)ccc1C(=O)NC[C@@H](O)CNC1Cc2ccccc2C1 [Compound 129, 4-(2-(3-oxa-8-azabicyclo[3.2.1]octan-8-yl)-2-oxoethyl)-N-((S)-3-((2,3-dihydro-1H-inden-2-yl)amino)-2-hydroxypropyl)-2-ethoxybenzamide]",0.629 µM
5,"CCOc1c(C(=O)NC[C@@H](O)CNC2Cc3ccccc3C2)ccc(C(=O)N2CCOCC2)c1C [Compound 130, (S)-N-(3-((2,3-dihydro-1H-inden-2-yl)amino)-2-hydroxypropyl)-2-ethoxy-3-methyl-4-(morpholine-4-carbonyl)benzamide]",1.13 µM
6,"O=C(NC[C@@H](O)CNC1Cc2ccccc2C1)c1ccccc1Cl [Compound 131, (S)-2-chloro-N-(3-((2,3-dihydro-1H-inden-2-yl)amino)-2-hydroxypropyl)benzamide]",4.59 µM
7,"COc1cc(C(=O)N2C3CCC2COC3)ccc1C(=O)NC[C@@H](O)CNC1Cc2ccccc2C1 [Compound 134, 4-(3-Oxa-8-azabicyclo[3.2.1]octane-8-carbonyl)-N-((S)-3-((2,3-dihydro-1H-inden-2-yl)amino)-2-hydroxypropyl)-2-methoxybenzamide hydrochloride]",0.238 µM
8,"O=C(NC[C@@H](O)CNC1Cc2ccccc2C1)c1ccc(C(=O)N2[C@@H]3CCC[C@H]2COC3)cc1 [Compound 136, 4-((1R,5S)-3-Oxa-9-azabicyclo[3.3.1]nonane-9-carbonyl)-N—((S)-3-((2,3-dihydro-1H-inden-2-yl)amino)-2-hydroxypropyl)benzamide]",0.05 µM
9,"CC(=O)N1CC2CCC(C1)C2Nc1cccc(C(=O)NC[C@@H](O)CNC2Cc3ccccc3C2)c1 (stereo partly drawn) [Compound 139, 3-((3-Acetyl-3-azabicyclo[3.2.1]octan-8-yl)amino)-N—((S)-3-((2,3-dihydro-1H-inden-2-yl)amino)-2-hydroxypropyl)benzamide]",0.771 µM
10,"CCOc1cc(C(=O)N2C3CCC2COC3)c(F)cc1C(=O)NC[C@@H](O)CNC1Cc2ccccc2C1 [Compound 141, 4-(3-oxa-8-azabicyclo[3.2.1]octane-8-carbonyl)-N—((S)-3-((2,3-dihydro-1H-inden-2-yl)amino)-2-hydroxypropyl)-2-ethoxy-5-fluorobenzamide]",0.695 µM

# Target: T1, Full-length PRMT5 enzyme co-expressed with MEP50
# Assay: PRMT5 Biochemical Assay
# Conditions: 200 nM histone H4 derived peptide substrate, 1 μM S-Adenosyl methionine, 4 hours at 37° C, Transcreener EPIGEN fluorescence polarisation
# Protocol: as §1
# The 6 μL assay reactions are run in Greiner brand black 384-well low volume plates. All reactions contained assay buffer (phosphate buffered saline, 0.01% (v/v) Tween-20, 0.01% (w/v) albumin from chicken egg white, 1 mM dithiothreitol, 200 nM peptide substrate, 1 μM S-Adenosyl methionine, and 15 ng/reaction enzyme, with the enzyme being omitted from negative control reactions. Compounds were added in a volume of 100 nL from dilution series prepared in DMSO, positive and negative control reactions receiving the same volume DMSO without compound. The plates were sealed with adhesive seals and incubated for 4 hours at 37° C. Reaction progress was measured using the Transcreener™ EPIGEN methyltransferase assay (BellBrook Labs, Madison, Wis.) as recommended by the manufacturer. To each reaction 2 μL detection mix were added, containing coupling enzymes, fluorescence polarisation tracer, and AMP antibody. Plates were incubated for 90 min before being read on a PerkinElmer EnVision™ plate reader in fluorescence polarisation mode.
row,IC50,SMILES
1,1.55 µM,"COc1ccc(-c2cc(C(=O)NC[C@H](O)CNC3Cc4ccccc4C3)no2)cc1 [Compound 6, (R)-N-(3-((2,3-Dihydro-1H-inden-2-yl)amino)-2-hydroxypropyl)-5-(4-methoxyphenyl)isoxazole-3-carboxamide]"
2,0.695 µM,"Cc1nnc(-c2ccc(C(=O)NC[C@H](O)CNC3Cc4ccccc4C3)cc2)o1 [Compound 12, (R)-N-(3-((2,3-Dihydro-1H-inden-2-yl)amino)-2-hydroxypropyl)-4-(5-methyl-1,3,4-oxadiazol-2-yl)benzamide]"

# Second part, the compound before the results:
row,SMILES,IC50
1,"O=C(NCC(O)CNC1Cc2ccccc2C1)c1ccc(Cl)cc1 (stereo not shown) [Compound 1, 4-Chloro-N-(3-((2,3-dihydro-1H-inden-2-yl)amino)-2-hydroxypropyl)benzamide]",0.792 µM
2,"Cc1nc(-c2ccc(C(F)(F)F)cc2)sc1C(=O)NC[C@H](O)CNC1Cc2ccccc2C1 [Compound 3, (R)—N-(3-((2,3-Dihydro-1H-inden-2-yl)amino)-2-hydroxypropyl)-4-methyl-2-(4-(trifluoromethyl)phenyl)thiazole-5-carboxamide]",0.309 µM
3,"O=C(NC[C@H](O)CNC1Cc2ccccc2C1)c1cnn(-c2ccccc2)c1 [Compound 4, (R)-N-(3-((2,3-Dihydro-1H-inden-2-yl)amino)-2-hydroxypropyl)-1-phenyl-1H-pyrazole-4-carboxamide]",3.79 µM
4,"Cc1nn(C)cc1-c1cc(C(=O)NC[C@H](O)CNC2Cc3ccccc3C2)no1 [Compound 5, (R)-N-(3-((2,3-Dihydro-1H-inden-2-yl)amino)-2-hydroxypropyl)-5-(1,3-dimethyl-1H-pyrazol-4-yl)isoxazole-3-carboxamide]",9.78 µM
5,"O=C(NC[C@H](O)CNC1Cc2ccccc2C1)c1cnn(-c2ccc(F)cc2)c1 [Compound 9, (R)-N-(3-((2,3-Dihydro-1H-inden-2-yl)amino)-2-hydroxypropyl)-1-(4-fluorophenyl)-1H-pyrazole-4-carboxamide]",3.72 µM
6,"O=C(NC[C@H](O)CNC1Cc2ccccc2C1)c1cnn(-c2cccc(Cl)c2)c1 [Compound 10, (R)-1-(3-Chlorophenyl)-N-(3-((2,3-dihydro-1H-inden-2-yl)amino)-2-hydroxypropyl)-1H-pyrazole-4-carboxamide]",1.44 µM
7,"O=C(NC[C@H](O)CNC1Cc2ccccc2C1)c1ccc(N2CCOCC2)nc1 [Compound 11, (R)-N-(3-((2,3-Dihydro-1H-inden-2-yl)amino)-2-hydroxypropyl)-6-morpholinonicotinamide]",0.83 µM
